In publication PMC11926880, “Procognitive Potential of Neuroprotective Triazine 5-HT6 Receptor Antagonists Tested on Chronic Activity In Vivo in Rats: Computer-Aided Insight into the Role of Chalcogen-Differences on the Pharmacological Profile” (ACS Chemical Neuroscience, 2025):
Where two headings read alike, the source gives them in different places.

Tests used:
[1] = system: rats; assay: NORT after 21 day administration, discrimination index; assay type: in vivo, rat; settings: for reversal of (+)MK-801-induced memory disturbances (DI): (+)MK-801 0.1 mg/kg
Experimental: Standard laboratory food (LSM-B) and filtered water as well as environment enrichment were freely available. Animals were randomly divided into treatment groups using a computer-based random order generator. All of the experiments were performed by two observers unaware of the treatment applied between 9:00 and 14:00 on separate groups of animals.
In the NOR test (NORT), rats were randomly divided into experimental groups (n = 8/group). […] All compounds were prepared immediately before administration and were injected intraperitoneally (i.p.) in a constant volume of 2 mL/kg. […] The control group received 1% Tween 80 on the same schedule.
The test was carried out according to the method described by Ennaceur.[46] NORT was conducted in two black-painted wood boxes (60 cm × 60 cm × 60 cm). A video camera mounted above the boxes recorded all experiments. Two days before the test, the rats were placed in the empty experimental boxes for 5 min as a habituation to the test area. On the third day, the test was performed in 2 trials lasting for 3 min at one-hour intervals. First session, familiarization (T1) with two identical objects (A1 and A2) located in the opposite corners of the boxes, approximately 10 cm from the walls, and second trial, recognition (T2) with one familiar (A) and one novel object (B). Metal cans and glass jars with sand were used as the objects. The boxes were cleaned and dried after each measurement. The exploration time (E) of the objects (such as looking, licking, sniffing, or touching while sniffing) during T2 was measured, and the discrimination index (DI) was calculated according to the following formula: DI = (EB – EA)/(EA + EB).
The normality of data distribution and the homogeneity of variance were checked using the Shapiro–Wilk’s test and Levene’s test, respectively. All behavioral results are shown as the means ± SEM.

[2] = design: method as in PMID 38190615, PMID 35228010; settings: LC/MS after biotransformation in rLMs; cited from earlier work
[3] = system: HT-22 cell line; assay: protection against Aβ1–42, ROS (CellROX); assay type: cell-based, mouse; settings: 10 μM pretreatment 1 h, Aβ1–42 35 μM 16 h
Experimental: Cells were cultured in Dulbecco’s modified Eagle’s Medium-high glucose (DMEM, GlutaMAX ThermoFisher) supplemented with 10% inactivated fetal bovine serum heat (Thermo Fisher), 100 IU/mL penicillin (Merck), and 100 μg/mL streptomycin (Merck). Cells were cultured in flasks (area 175 cm^2, Nunc) and incubated at 37 °C, 5% CO2. To measure the neuroprotective effect against Aβ1–42, cells were placed in a 96-well culture plate (5 × 10^3 cells per well, Falcon).
Stock solutions were prepared at a concentration of 10 mM for the tested compounds. A minimum of 1 mg of each tested compound was weighed and dissolved in an appropriate volume of dimethyl sulfoxide (DMSO). Serial dilutions were prepared in DMSO, and then, the diluted compounds were transferred to phosphate-buffered saline (PBS), mixed, and put into a medium with adherent cells. Before the assays, eventual precipitation or opalescence was checked.
Aβ1–42 (Merck) was initially dissolved in 1,1,1,3,3,3- hexafluor-2-propanol (Merck). […] After this time, the Aβ1–42 solution was evaporated by using nitrogen gas. Next, DMSO was added to obtain a 2 mM stock solution of β-amyloid. […]
After the end of incubation with the tested compounds, the supernatant was removed, and cells were incubated with CellROX (5 μM) in DMEM FluoroBrite (ThermoFisher) for 1 h at 37 °C. The results are expressed as a percentage of control (Aβ1–42).

[4] = system: HepG2; design: method as in PMID 38190615, PMID 35228010; settings: tested at 0.1–100 μM; cited from earlier work
[5] = system: HT-22 cell line; assay: protection against Aβ1–42, cell membrane damage (ToxiLight); assay type: cell-based, mouse; settings: 10 μM pretreatment 1 h, Aβ1–42 35 μM 16 h
Experimental: Cells were cultured in Dulbecco’s modified Eagle’s Medium-high glucose (DMEM, GlutaMAX ThermoFisher) supplemented with 10% inactivated fetal bovine serum heat (Thermo Fisher), 100 IU/mL penicillin (Merck), and 100 μg/mL streptomycin (Merck). Cells were cultured in flasks (area 175 cm^2, Nunc) and incubated at 37 °C, 5% CO2. To measure the neuroprotective effect against Aβ1–42, cells were placed in a 96-well culture plate (5 × 10^3 cells per well, Falcon). To measure the toxicity of tested compounds, cells were placed in a 96-well culture plate (5 × 10^3 and 2 × 10^4 cells per well, Falcon).
Stock solutions were prepared at a concentration of 10 mM for the tested compounds. A minimum of 1 mg of each tested compound was weighed and dissolved in an appropriate volume of dimethyl sulfoxide (DMSO). Serial dilutions were prepared in DMSO, and then, the diluted compounds were transferred to phosphate-buffered saline (PBS), mixed, and put into a medium with adherent cells. Before the assays, eventual precipitation or opalescence was checked. […]
Then, 20 μL of adenylate kinase detection reagent was added. The luminescence was measured after 10 min of incubation with a plate reader, POLARstar Omega (BMG Labtech). The results are expressed as a percentage of the control (Aβ1–42), corresponding to the percentage of dead cells concerning the control sample.

[6] = system: SH-SY5Y cells; settings: 50 μM, 27 h; cited from earlier work
[7] = system: rats; settings: acute administration, cited from earlier work
[8] = 1 mg/kg i.p., cited from earlier work
[9] = system: NRF2; assay: Western blot for NRF2 (total and nuclear extracts); assay type: cell-based, human; settings: 10 μM, 24 h
[10] = system: SH-SY5Y cells; assay: MTS assay 72 h, neurotoxic effect; assay type: cell-based, human; settings: 10 and 50 μM
Experimental: SHSY5Y cells were grown in DMEM supplemented by 10% FBS, L-glutamine (2 mM), and penicillin (100u/mL)/streptomycin (100 μg/mL). The cell line was tested for mycoplasma using DAPI staining and the LookOut Mycoplasma PCR Detection Kit (MP0035, Merck). The cell line was authenticated after thawing by a morphology check, cell proliferation rate evaluation, and species verification by PCR. Bacteria contamination was excluded. […] Subsequently, cells were subjected to a CellTiter 96 AQueous One Solution Cell Proliferation Assay (Promega), according to the manufacturer’s protocol. The absorbance at 490 nm was evaluated to estimate the cell number.

[11] = design: method as in PMID 38190615; settings: serum, cited from earlier work
[12] = system: SH-SY5Y cells; assay: qRT-PCR of neurodegeneration-associated genes; assay type: cell-based, human; settings: 24 h
[13] = design: method as in PMID 38190615, PMID 35228010; settings: AMES test; cited from earlier work
[14] = system: SH-SY5Y cells; assay: ROS assay (2',7'DCFH2-DA), rotenone-induced neurotoxicity; assay type: cell-based, human; settings: ROT 32.5 μM alone, 3 h
Experimental: The ROS measurement was assayed by 2′,7′-dichlorofluorescin diacetate (2′, 7′DCFH2-DA, Sigma, no. D6883). The protocol was previously described in detail.[10] […] The following day, all treatments were carried out with warmed HBSS containing 25 mM HEPES (hereafter referred to as HBSS), and during the operational steps, the cells were kept at 37 °C to minimize temperature stress.

C[C@]12N[C@H](Cc3ccccc31)c1ccccc12 [(+)MK-801, reference compound]
effect on memory functions (DI) ([1]; 0.1 mg/kg i.p. once, 30 min before the test): induced deficits in memory functions

CN1CCN(c2nc(N)nc(C(C)(C)[Se]c3ccc4ccccc4c3)n2)CC1 [PPK-32]
metabolic stability, % of remaining structure [2]: 37%
decrease of ROS induced by Aβ [3]: displayed the ability to decrease ROS
hepatotoxic (statistically significant HepG2 viability decrease) [4]: >100 µM
protection of cell integrity against membrane destruction caused by Aβ1–42 [5]: slightly more potent than the thioether WA-22
reduction of cell viability compared to Ctr [6]: 45%
memory-protective action at doses as low as ([7]; male Wistar rats, (+)MK-801): 0.3 mg/kg
detected in rat organs up to (time after administration) [8]: up to 120 min
Cmax ([8]; brain, highest value 30 min after administration): 54.9 ng/g
t1/2λz ([8]; liver): 1.42 h
NRF2 protein amount (total extract) ([9]; GAPDH loading control): protein amount was not modulated
NRF2 translocation from cytoplasm to nucleus ([9]; nuclear extracts, H3 loading control): distinctly stronger than that upon WA-22 treatment
neurotoxic effect (MTS) [10]: no significant differences
AUC0–∞ ([11]; 1 mg/kg i.p.): 1833.92 ng·min/mL
Cmax ([11]; 1.0 mg/kg i.p.): 34.9 ng/mL
expression of beta-secretase BACE1 ([12]; 10 μM): negatively regulate
NRF2 transcription ([12]; 10 and 50 μM): neither WA-22 nor PPK-32 were able to stimulate its transcription
expression of NQO1, SOD1, and HO1 ([12]; 10 and 50 μM): induce the expression
expression of pro-inflammatory gene NFkB ([12]; 10 and 50 μM): neither WA-22 nor PPK-32 were able to downregulate
reversal of (+)MK-801-induced memory disturbances (DI) ([1]; 1 mg/kg/day i.p., 21 days): inactive
reversal of (+)MK-801-induced memory disturbances (DI) ([1]; 3 mg/kg/day i.p., 21 days): significantly reversed
mutagenic [13]: no

C=C(C)[C@H]1Cc2c(ccc3c2O[C@@H]2COc4cc(OC)c(OC)cc4[C@@H]2C3=O)O1 [ROT, Rotenone, reference compound]
ROS level (Ctr set as 100%) [14]: 176%

COc1cc2c(cc1OC)C(=O)C(CC1CCN(Cc3ccccc3)CC1)C2 (stereo not drawn) [donepezil, reference compound]
active dose in NOR test (significantly reversed MK-801 memory disturbances) ([7]; rat): g Dose of a compound that in a statistically significant manner reversed memory disturbances caused by MK-801 in the novel object recognition (NOR) test in rats;[12],[13] active dose for donepezil was 1 mg/kg. mg/kg i.p
influence on memory compared to vehicle-treated rats (DI) ([1]; 1 mg/kg/day i.p., 21 days, without (+)MK-801): No memory changing
reversal of (+)MK-801-induced memory disturbances (DI) ([1]; 1 mg/kg/day i.p., 21 days): reverse memory disturbances
minimal active chronic dose ([1]; i.p., 21 days, reversal of (+)MK-801-induced memory impairments): 1 mg/kg/day
